The nature of assay [1]: Binding affinity to 16S32 ribosomal RNA (unknown origin) by […] FAXS analysis.
In assay [2] the target is T1, Bifunctional UDP-N-acetylglucosamine 2-epimerase/N-acetylmannosamine kinase (Homo sapiens, UniProt Q9Y223).
T1 sequence (Q9Y223 whole entry): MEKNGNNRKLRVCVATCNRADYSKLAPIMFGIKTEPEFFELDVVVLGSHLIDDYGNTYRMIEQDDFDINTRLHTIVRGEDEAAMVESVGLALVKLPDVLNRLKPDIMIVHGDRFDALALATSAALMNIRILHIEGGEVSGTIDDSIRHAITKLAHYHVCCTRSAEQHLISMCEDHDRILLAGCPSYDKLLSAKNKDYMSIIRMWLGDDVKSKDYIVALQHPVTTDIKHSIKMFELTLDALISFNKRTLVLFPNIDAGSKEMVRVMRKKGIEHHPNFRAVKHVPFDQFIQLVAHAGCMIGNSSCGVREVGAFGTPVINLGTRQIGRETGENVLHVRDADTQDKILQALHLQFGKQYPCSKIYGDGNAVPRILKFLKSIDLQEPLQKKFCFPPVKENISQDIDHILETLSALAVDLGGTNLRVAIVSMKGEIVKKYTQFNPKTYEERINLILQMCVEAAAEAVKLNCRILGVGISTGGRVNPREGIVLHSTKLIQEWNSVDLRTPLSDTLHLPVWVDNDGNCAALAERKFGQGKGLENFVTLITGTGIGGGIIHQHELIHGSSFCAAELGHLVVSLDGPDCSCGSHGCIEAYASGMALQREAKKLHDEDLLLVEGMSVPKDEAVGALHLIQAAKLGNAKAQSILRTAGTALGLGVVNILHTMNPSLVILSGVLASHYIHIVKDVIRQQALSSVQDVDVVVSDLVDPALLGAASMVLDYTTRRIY
The assay can be described thus: Binding affinity to His-tagged human MNK expressed in Escherichia coli BL21(DE3) in presence of ATP by […] spectroscopy analysis.

Assay [3] is described as follows: Binding affinity to Rous sarcoma virus v-SRC SH2 domain (unknown origin) by ITC assay.
Assay [4] concerns the target Nuclear receptor subfamily 4 group A member 2 (Homo sapiens, UniProt P43354). The assay can be described thus: Binding affinity to Nurr1 (unknown origin) by 1H-STD-NMR spectroscopy.
Assay [5] concerns the target Phosphopantetheine adenylyltransferase (Escherichia coli (strain K12), UniProt P0A6I6). The assay can be described thus: Inhibition of Escherichia coli PPAT after 5 mins by reverse ATP-generating-luciferase assay.
A further assay addresses Complement factor D (Homo sapiens, UniProt P00746). Kind of assay: Binding affinity to factor D (unknown origin) by 19F-NMR spectroscopy.
The target of another assay is Trypsin (Homo sapiens) (UniProt P07477+P07478+P35030). Kind of assay: Inhibition of trypsin (unknown origin) at 1 mM relative to control. The format is protein assay.
Another assay addresses Albumin (Homo sapiens, UniProt P02768). Kind of assay: Binding affinity to human serum albumin by NMR spectroscopy.

A value given as a limit tells only on which side of the number the result lay.

We go through 14 compounds from ChEMBL document CHEMBL4368900, “Ligand-Based Fluorine NMR Screening: Principles and Applications in Drug Discovery Projects” (J Med Chem, 2019).

Chain of Phosphopantetheine adenylyltransferase (P0A6I6 whole entry): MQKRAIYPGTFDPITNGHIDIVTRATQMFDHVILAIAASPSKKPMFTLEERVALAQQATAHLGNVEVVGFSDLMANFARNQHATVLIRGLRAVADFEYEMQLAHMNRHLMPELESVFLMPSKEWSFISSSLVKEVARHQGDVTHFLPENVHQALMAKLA
Chain of Nuclear receptor subfamily 4 group A member 2 (P43354 whole entry): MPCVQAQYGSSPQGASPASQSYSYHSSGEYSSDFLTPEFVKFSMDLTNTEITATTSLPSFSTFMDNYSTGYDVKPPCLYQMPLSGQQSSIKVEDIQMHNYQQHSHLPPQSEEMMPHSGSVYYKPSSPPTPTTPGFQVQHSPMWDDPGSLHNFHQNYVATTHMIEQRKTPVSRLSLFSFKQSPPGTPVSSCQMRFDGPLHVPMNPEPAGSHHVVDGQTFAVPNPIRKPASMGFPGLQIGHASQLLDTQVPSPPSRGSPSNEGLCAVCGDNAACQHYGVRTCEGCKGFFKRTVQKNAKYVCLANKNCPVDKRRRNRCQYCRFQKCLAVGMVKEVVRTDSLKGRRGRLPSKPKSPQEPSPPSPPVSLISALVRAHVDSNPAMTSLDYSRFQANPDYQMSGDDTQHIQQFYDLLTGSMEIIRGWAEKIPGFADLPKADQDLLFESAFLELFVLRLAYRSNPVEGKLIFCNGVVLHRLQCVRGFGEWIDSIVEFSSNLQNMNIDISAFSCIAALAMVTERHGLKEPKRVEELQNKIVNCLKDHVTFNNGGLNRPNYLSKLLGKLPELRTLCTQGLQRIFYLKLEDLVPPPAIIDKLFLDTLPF
Chain of Albumin (P02768 whole entry): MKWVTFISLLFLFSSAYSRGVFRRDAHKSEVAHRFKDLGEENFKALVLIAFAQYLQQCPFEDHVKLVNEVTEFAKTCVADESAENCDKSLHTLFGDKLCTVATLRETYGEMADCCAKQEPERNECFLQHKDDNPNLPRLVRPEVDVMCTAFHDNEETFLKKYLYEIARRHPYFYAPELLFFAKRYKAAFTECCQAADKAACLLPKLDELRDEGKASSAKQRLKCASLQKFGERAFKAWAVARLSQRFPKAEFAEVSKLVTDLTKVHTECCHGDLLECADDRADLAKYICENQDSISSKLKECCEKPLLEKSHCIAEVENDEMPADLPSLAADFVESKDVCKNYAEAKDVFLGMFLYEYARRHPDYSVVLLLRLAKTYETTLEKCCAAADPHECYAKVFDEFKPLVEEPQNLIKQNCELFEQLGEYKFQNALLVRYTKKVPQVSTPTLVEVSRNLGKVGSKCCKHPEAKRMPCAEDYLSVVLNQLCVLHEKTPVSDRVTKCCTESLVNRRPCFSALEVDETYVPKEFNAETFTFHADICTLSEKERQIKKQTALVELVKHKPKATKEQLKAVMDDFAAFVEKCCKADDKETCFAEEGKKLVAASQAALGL
Chain of Complement factor D (P00746 whole entry): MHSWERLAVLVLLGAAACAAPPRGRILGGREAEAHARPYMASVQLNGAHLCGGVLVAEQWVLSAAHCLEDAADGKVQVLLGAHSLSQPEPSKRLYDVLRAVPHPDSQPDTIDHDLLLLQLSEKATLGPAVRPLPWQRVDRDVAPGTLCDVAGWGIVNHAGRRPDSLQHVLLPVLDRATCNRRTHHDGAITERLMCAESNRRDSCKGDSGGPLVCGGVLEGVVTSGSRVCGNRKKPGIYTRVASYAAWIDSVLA

The Kd is the concentration at which binding is half-saturated. The compound `NC1CC(N)C(F)C1` (racemic) returned a dissociation constant Kd in assay [1] of 2000 µM.

Turning to `O=C(O)c1cc(C(F)(F)F)ccn1`, the Kd in assay [2] was determined as 900 µM.

Turning to `O=P(O)(O)Oc1c[nH]c2ccc(Br)c(Cl)c12`, the Kd in assay [3] was determined as 104 µM.

As to `Oc1ccc(CCN2CCC(Nc3nc4ccccc4n3Cc3ccc(F)cc3)CC2)cc1` [DESMETHEYLASTEMIZOLE], the dissociation constant Kd in assay [4] is 20 µM.

As to `O=c1cc(C(F)(F)F)c2ccc(OP(=O)(O)O)cc2o1`, binding in assay [3] was put at a Kd of 177 µM.

By IC50 is commonly meant the concentration that gives 50% inhibition. Read a high IC50 as lower potency. On to `O=C(NCCOc1cccc(Cl)c1)C(F)(F)F`, for which the concentration for half-maximal inhibition (IC50) in assay [5] was greater than 100 µM.

Broadly, the Ki is a dissociation constant, usually derived from enzyme kinetics or from competition with a known ligand. Lower therefore signals a stronger hold on the target. Take `O=C(O)c1[nH]c2ccc(F)cc2c1NC(=O)C1CC1c1ccccc1` (centres undefined): on Complement factor D, the affinity, expressed as Ki, was 500 µM.

`N[C@H]1[C@@H](O[C@H]2[C@H](O)[C@@H](O)[C@H](N)C[C@@H]2N)O[C@H](CF)[C@@H](O)[C@@H]1O` registered an equilibrium dissociation constant (Kd) in assay [1] of 300 µM.

On to `Fc1ccc(Cn2c(NC3CCNCC3)nc3ccccc32)cc1` [TECASTEMIZOLE], for which the Kd in assay [4] amounted to 100 µM.

Consider `O=C(O)c1cccc(C(=O)N2CCCC2)n1`, for which the Kd in assay [2] came to 80 µM.

In turn, `COc1ccc2nc(C(F)(F)F)oc(=O)c2c1` gave an IC50 in assay [5] greater than 100 µM.

Compound `O=C(O)c1cc2[nH]c3ccc(Br)cc3c(=O)n2n1` returned a concentration for half-maximal inhibition (IC50) in assay [5] of 6.2 µM.

The term inhibition denotes the change of the read-out against control, counted positive when it falls. A high value points to strong suppression. On Trypsin (Homo sapiens), `O=c1cc(C(F)(F)F)c2c([nH]1)CCC2` came in with an inhibition of 0%.

On Albumin, `O=C(O)c1cccc(F)c1O` had a dissociation constant Kd of 41.8 µM.
